The assay relates to sickled blood cells (SS blood erythrocytes). The assay is described as follows: In vitro anti-sickling activity, Emmel test on SS blood. In kind it is cell-based. The settings on record: for Emmel Test Result: 2% sodium metabisulphite, 2 hours anaerobic, compounds diluted in NaCl 0.9%. On the procedure: Blood samples were collected from “Centre de Medecine Mixte et d'Anémie SS” located in Kinshasa, Democratic Republic of Congo (DRC). The blood samples were first characterised by Hb electrophoresis on cellulose acetate gel, in order to confirm their SS nature, as previously reported by Mpiana et al., 2007^6. Confirmed SS blood samples were refrigerated at ˜4° C., and used for Emmel test.
A drop of physiological solution was put on a glass slide and a drop of SS blood was added on the physiological solution. One drop of 2% sodium metabisulphite solution was added on the slide glass which was hermetically covered using a cover glass with melted paraffin wax and kept covered for 2 hours in order to accelerate the sickling of the blood. After 2 hours in anaerobic conditions, the blood sample became deoxygenated and adopted sickle shape. Assay was observed under an optical microscope and the number of observed erythrocytes was determined using Thomas' cell (Courtejoie, J. and Hartaing, I, 1992)^7.
SS blood samples were contacted at different concentrations with diluted samples of the compounds (8), (9), (10), and (11) using physiological solution (NaCl 0.9%) as dilution solvent, according to Emmel's test procedure as reported above and optical measurements were taken.
Pictures were obtained with an optical microscope (motic). In order to convert the photonic micrograph image into a digital image, a Canon digital camera (Zoom X6) was used to digitize micrographs using Motic Images 200 version 1.3 software, on Windows XP. Thomas' cell was used to observe the number of erythrocytes. The results of the in vitro anti-sickling activity of betulinic acid (8), 3-acetoxybetulinic acid (11), oleanolic acid (9) and maslinic acid (10) are shown in Table 1.

With `C=C(C)[C@@H]1CC[C@]2(C(=O)O)CC[C@]3(C)[C@H](CC[C@@H]4[C@@]5(C)CC[C@H](O)C(C)(C)[C@@H]5CC[C@]43C)[C@@H]12` [DS/10/C/A, Betulinic acid], the “Emmel Test Result” value is “+++ (+++ = >70% normalisation of sickled blood cells.)”.

For the compound `C=C(C)[C@@H]1CC[C@]2(C(=O)O)CC[C@]3(C)[C@H](CC[C@@H]4[C@@]5(C)CC[C@H](OC(C)=O)C(C)(C)[C@@H]5CC[C@]43C)[C@@H]12` [DS/10/C/Ab, 3-acetoxybetulinic acid], the “Emmel Test Result” value is given as “+++ (+++ = >70% normalisation of sickled blood cells.)”.

For `CC1(C)CC[C@]2(C(=O)O)CC[C@]3(C)C(=CC[C@@H]4[C@@]5(C)CC[C@H](O)C(C)(C)[C@@H]5CC[C@]43C)[C@@H]2C1` [DS/FS/1, Oleanolic acid], the “Emmel Test Result” value is given as “+ (+ = 10 to 50% normalisation of sickled blood cells.)”. Also, the “normalisation of sickled blood cells” value (Emmel test, in vitro) was 10-50%. As to `CC1(C)CC[C@]2(C(=O)O)CC[C@]3(C)C(=CC[C@@H]4[C@@]5(C)C[C@@H](O)[C@H](O)C(C)(C)[C@@H]5CC[C@]43C)[C@@H]2C1` [DS/FS/2, Maslinic acid], the “Emmel Test Result” value is recorded as “+++ (+++ = >70% normalisation of sickled blood cells.)”.

The record behind these values is patent US8685469B2, “In vitro anti-sickling activity of betulinic acid, oleanolic acid and their derivatives” (University of KwaZulu-Natal, priority 2009, dated 2014).
